In patent US10759793B2, “2-(pyrazolopyridin-3-yl)pyrimidine derivatives as JAK inhibitors” (ALMIRALL, S.A., priority 2015, dated 2020):

Assays:
Type in all cases: biochemical
JAK3 = JAK3 (Homo sapiens (Human), UniProt P52333); assay: In vitro JAK kinase assay (TR-FRET), JAK3; details: catalytic domain aa 795-1124, GST-fusion; ATP 0.6 μM; peptide 140 nM; 30 minutes at room temperature
Procedure: (§1) Compounds were screened for their ability to inhibit JAK1, JAK2 and JAK3 using the assays as indicated below. […] The enzymatic activity was assayed using as substrate a biotinylated peptide, poly (GT)-Biotin (CisBio). […] The degree of phosphorylation was detected by TR-FRET (time-resolved fluorescence energy transfer). […] The enzymatic reactions took place for 30 minutes at room temperature. […] Incubate for 3 h and read on Victor 2V spectrofluorometer (Perkin Elmer) set to read fluorescence resonance energy transfer.

JAK2 = JAK2 (Homo sapiens (Human), UniProt O60674); assay: In vitro JAK kinase assay (TR-FRET), JAK2; details: catalytic domain aa 826-1132, GST-fusion; ATP 0.2 μM; peptide 20 nM; 30 minutes at room temperature
Procedure: as §1

JAK1 = JAK1 (Homo sapiens (Human), UniProt P23458); assay: In vitro JAK kinase assay (TR-FRET), JAK1; details: catalytic domain aa 850-1154, GST-fusion; ATP 3 μM; peptide 60 nM; 30 minutes at room temperature
Procedure: as §1

Sequence of JAK3 (P52333 795-1124): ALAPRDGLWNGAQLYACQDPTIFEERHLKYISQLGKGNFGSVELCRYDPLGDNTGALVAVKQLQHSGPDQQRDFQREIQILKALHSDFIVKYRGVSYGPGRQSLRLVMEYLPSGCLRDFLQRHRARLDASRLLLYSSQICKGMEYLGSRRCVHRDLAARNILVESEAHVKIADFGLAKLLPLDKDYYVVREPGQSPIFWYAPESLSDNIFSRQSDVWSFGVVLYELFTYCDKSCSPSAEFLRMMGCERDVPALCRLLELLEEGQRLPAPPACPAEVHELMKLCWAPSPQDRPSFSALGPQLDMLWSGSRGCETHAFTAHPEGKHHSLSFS
Sequence of JAK2 (O60674 826-1132): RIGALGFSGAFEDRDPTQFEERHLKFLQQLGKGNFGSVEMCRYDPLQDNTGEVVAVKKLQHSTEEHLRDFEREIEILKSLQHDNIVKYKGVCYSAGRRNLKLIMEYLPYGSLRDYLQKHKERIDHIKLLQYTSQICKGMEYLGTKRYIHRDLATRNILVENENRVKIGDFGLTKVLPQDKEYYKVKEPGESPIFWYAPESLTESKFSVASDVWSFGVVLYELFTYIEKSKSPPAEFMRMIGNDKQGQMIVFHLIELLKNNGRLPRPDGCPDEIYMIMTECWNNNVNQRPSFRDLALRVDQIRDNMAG
Sequence of JAK1 (P23458 850-1154): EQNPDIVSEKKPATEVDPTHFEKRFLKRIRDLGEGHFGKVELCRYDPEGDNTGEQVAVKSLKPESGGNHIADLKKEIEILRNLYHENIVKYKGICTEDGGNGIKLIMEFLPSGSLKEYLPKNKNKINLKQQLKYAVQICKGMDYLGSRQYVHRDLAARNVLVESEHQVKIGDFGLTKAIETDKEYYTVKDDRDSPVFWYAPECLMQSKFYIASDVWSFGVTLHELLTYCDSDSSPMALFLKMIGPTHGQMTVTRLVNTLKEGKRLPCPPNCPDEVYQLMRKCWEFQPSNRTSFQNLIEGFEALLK

Compound | IC50 (JAK3) [nM] | IC50 (JAK2) [nM] | IC50 (JAK1) [nM]
C[C@H](O)COc1nc(-c2cnn3ccccc23)nc(O[C@@H]2CCCN(C(=O)CO)C2)c1F [Example 90, (2S)-1-[(5-Fluoro-6-{[(3R)-1-glycoloylpiperidin-3-yl]oxy}-2-pyrazolo[1,5-a]pyridin-3-ylpyrimidin-4-yl)oxy]propan-2-ol] | 4 | 1 | 14
O=C(CO)N1CCC[C@@H](Nc2nc(-c3cnn4ccccc34)nc(OCCCO)c2F)C1 [Example 41, 3-[(5-Fluoro-6-{[(3R)-1-glycoloylpiperidin-3-yl]amino}-2-pyrazolo[1,5-a]pyridin-3-ylpyrimidin-4-yl)oxy]propan-1-ol] | 3 | 1 | 8
Cc1ccn2ncc(-c3nc(N[C@@H]4CCCN(C(=O)CO)C4)c(F)c(N4CCOCC4)n3)c2c1 [Example 29, 2-((3R)-3-{[5-Fluoro-2-(5-methylpyrazolo[1,5-a]pyridin-3-yl)-6-morpholin-4-ylpyrimidin-4-yl]amino}piperidin-1-yl)-2-oxoethanol] | 10 | 4 | 27
CCOC(=O)C1CCN(c2nc(-c3cnn4ccccc34)nc(N[C@@H]3CCCN(C(=O)CC#N)C3)c2F)CC1 [Example 30, Ethyl 1-(6-{[(3R)-1-(cyanoacetyl)piperidin-3-yl]amino}-5-fluoro-2-pyrazolo[1,5-a]pyridin-3-ylpyrimidin-4-yl)piperidine-4-carboxylate] | 2 | 0.6 | 4
O=C(CO)N1CCC[C@@H](Oc2nc(-c3cnn4ccccc34)nc(NCCO)c2F)C1 [Example 69, 2-[(3R)-3-({5-Fluoro-6-[(2-hydroxyethyl)amino]-2-pyrazolo[1,5-a]pyridin-3-ylpyrimidin-4-yl}oxy)piperidin-1-yl]-2-oxoethanol] | 11 | 3 | 37
CCOC(=O)C1(C)CCN(c2nc(-c3cnn4ccccc34)nc(N[C@@H]3CCCN(C(=O)CO)C3)c2F)CC1 [Example 28, Ethyl 1-(5-fluoro-6-{[(3R)-1-glycoloylpiperidin-3-yl]amino}-2-pyrazolo[1,5-a]pyridin-3-ylpyrimidin-4-yl)-4-methylpiperidine-4-carboxylate] | 3 | 0.8 | 5
CCOC(=O)c1nc(-c2cnn3ccccc23)nc(N[C@@H]2CCCN(C(=O)CO)C2)c1F [Example 46, Ethyl 5-fluoro-6-{[(3R)-1-glycoloylpiperidin-3-yl]amino}-2-pyrazolo[1,5-a]pyridin-3-ylpyrimidine-4-carboxylate] | 4 | 3 | 10
C[C@@H](CO)Oc1nc(-c2cnn3ccccc23)nc(N[C@@H]2CCCN(C(=O)CO)C2)c1F [Example 59, (2S)-2-[(5-Fluoro-6-{[(3R)-1-glycoloylpiperidin-3-yl]amino}-2-pyrazolo[1,5-a]pyridin-3-ylpyrimidin-4-yl)oxy]propan-1-ol] | 4 | 3 | 29
N#CC[C@H]1CC[C@H](Nc2nc(-c3cnn4ccccc34)nc(NCCO)c2F)CC1 [Example 8, [Trans-4-({5-fluoro-6-[(2-hydroxyethyl)amino]-2-pyrazolo[1,5-a]pyridin-3-ylpyrimidin-4-yl}amino)cyclohexyl]acetonitrile] | 10 | – | 16
NC(=O)c1nc(-c2cnn3ccccc23)nc(N[C@@H]2CCCN(C(=O)CO)C2)c1F [Example 48, 5-Fluoro-6-{[(3R)-1-glycoloylpiperidin-3-yl]amino}-2-pyrazolo[1,5-a]pyridin-3-ylpyrimidine-4-carboxamide] | 5 | – | 13
N#Cc1cnc(N2CCC[C@@H](Nc3nc(-c4cnn5ccccc45)nc(OCCO)c3F)C2)cn1 [Example 54, 5-((3R)-3-{[5-fluoro-6-(2-hydroxyethoxy)-2-pyrazolo[1,5-a]pyridin-3-ylpyrimidin-4-yl]amino}piperidin-1-yl)pyrazine-2-carbonitrile] | – | – | 7
CCOCCOc1nc(-c2cnn3ccccc23)nc(N[C@@H]2CCCN(C(=O)CO)C2)c1F [Example 83, 2-((3R)-3-{[6-(2-Ethoxyethoxy)-5-fluoro-2-pyrazolo[1,5-a]pyridin-3-ylpyrimidin-4-yl]amino}piperidin-1-yl)-2-oxoethanol] | 4 | – | 32
N#CCC(=O)N1CCC[C@@H](Oc2nc(-c3cnn4ccccc34)nc(OCCO)c2F)C1 [Example 66, 3-((3R)-3-{[5-Fluoro-6-(2-hydroxyethoxy)-2-pyrazolo[1,5-a]pyridin-3-ylpyrimidin-4-yl]oxy}piperidin-1-yl)-3-oxopropanenitrile] | 4 | – | 10

The next lines start with the values.

IC50 (JAK3) [nM] | IC50 (JAK2) [nM] | IC50 (JAK1) [nM] | Compound
1 | 0.5 | 1 | Cc1cc(-c2nc(-c3cnn4ccccc34)nc(N[C@@H]3CCCN(C(=O)CC#N)C3)c2F)ccn1 [Example 20, 3-((3R)-3-{[5-fluoro-6-(2-methylpyridin-4-yl)-2-pyrazolo[1,5-a]pyridin-3-ylpyrimidin-4-yl]amino}piperidin-1-yl)-3-oxopropanenitrile]
1 | 1 | 2 | Cc1cc(-c2cc(N[C@@H]3CCCN(C(=O)CO)C3)nc(-c3cnn4ccccc34)n2)cc(C)n1 [Example 101, 2-((3R)-3-{[6-(2,6-Dimethylpyridin-4-yl)-2-pyrazolo[1,5-a]pyridin-3-ylpyrimidin-4-yl]amino}piperidin-1-yl)-2-oxoethanol]
7 | 9 | 2 | Cc1ccc(-c2cc(N[C@@H]3CCCN(C(=O)CO)C3)nc(-c3cnn4ccccc34)n2)cn1 [Example 99, 2-((3R)-3-{[6-(6-Methylpyridin-3-yl)-2-pyrazolo[1,5-a]pyridin-3-ylpyrimidin-4-yl]amino}piperidin-1-yl)-2-oxoethanol]
7 | 1 | 2 | O=C(CO)N1CCC[C@@H](Nc2nc(-c3cnn4ccccc34)nc(-c3ccnc(CO)c3)c2F)C1 [Example 37, 2-[(3R)-3-({5-Fluoro-6-[2-(hydroxymethyl)pyridin-4-yl]-2-pyrazolo[1,5-a]pyridin-3-ylpyrimidin-4-yl}amino)piperidin-1-yl]-2-oxoethanol]
1 | 3 | 1 | Cc1cc(-c2nc(-c3cnn4ccccc34)nc(N[C@@H]3CCCN(C(=O)CO)C3)c2F)cc(C)n1 [Example 86, 2-((3R)-3-{[6-(2,6-Dimethylpyridin-4-yl)-5-fluoro-2-pyrazolo[1,5-a]pyridin-3-ylpyrimidin-4-yl]amino}piperidin-1-yl)-2-oxoethanol]
4 | 1 | 2 | O=C(CO)N1CCC[C@@H](Nc2nc(-c3cnn4ccccc34)nc(-c3ccncc3)c2F)C1 [Example 80, 2-{(3R)-3-[(5-Fluoro-2-pyrazolo[1,5-a]pyridin-3-yl-6-pyridin-4-ylpyrimidin-4-yl)amino]piperidin-1-yl}-2-oxoethanol]
4 | 0.6 | 2 | O=C(CO)N1CCC[C@@H](Nc2nc(-c3cnn4ccccc34)nc(-c3cn[nH]c3)c2F)C1 [Example 32, 2-((3R)-3-{[5-Fluoro-2-pyrazolo[1,5-a]pyridin-3-yl-6-(1H-pyrazol-4-yl)pyrimidin-4-yl]amino}piperidin-1-yl)-2-oxoethanol]
2 | 0.5 | 2 | Cc1ccc(-c2nc(-c3cnn4ccccc34)nc(N[C@@H]3CCCN(C(=O)CO)C3)c2F)cn1 [Example 36, 2-((3R)-3-{[5-Fluoro-6-(6-methylpyridin-3-yl)-2-pyrazolo[1,5-a]pyridin-3-ylpyrimidin-4-yl]amino}piperidin-1-yl)-2-oxoethanol]
1 | 1 | 1 | N#CCC(=O)N1CCC[C@@H](Nc2cc(OCCO)nc(-c3cnn4ccccc34)n2)C1 [Example 103, 3-((3R)-3-{[6-(2-Hydroxyethoxy)-2-pyrazolo[1,5-a]pyridin-3-ylpyrimidin-4-yl]amino}piperidin-1-yl)-3-oxopropanenitrile]
6 | – | 2 | O=C(O)c1ccc(-c2nc(-c3cnn4ccccc34)nc(N[C@@H]3CCCN(C(=O)CO)C3)c2F)cn1 [Example 79, 5-(5-Fluoro-6-{[(3R)-1-glycoloylpiperidin-3-yl]amino}-2-pyrazolo[1,5-a]pyridin-3-ylpyrimidin-4-yl)pyridine-2-carboxylic acid]
5 | – | 2 | O=C(CO)N1CCC[C@@H](Nc2nc(-c3cnn4ccccc34)nc(-c3ccc(CO)nc3)c2F)C1 [Example 84, 2-[(3R)-3-({5-Fluoro-6-[6-(hydroxymethyl)pyridin-3-yl]-2-pyrazolo[1,5-a]pyridin-3-ylpyrimidin-4-yl}amino)piperidin-1-yl]-2-oxoethanol]
– | – | 7 | COc1ccc(-c2nc(-c3cnn4ccccc34)nc(N[C@@H]3CCCN(C(=O)CO)C3)c2F)cn1 [Example 35, 2-((3R)-3-{[5-Fluoro-6-(6-methoxypyridin-3-yl)-2-pyrazolo[1,5-a]pyridin-3-ylpyrimidin-4-yl]amino}piperidin-1-yl)-2-oxoethanol]
5 | – | 3 | COc1cc(-c2cc(N[C@@H]3CCCN(C(=O)CO)C3)nc(-c3cnn4ccccc34)n2)ccn1 [Example 98, 2-((3R)-3-{[6-(2-Methoxypyridin-4-yl)-2-pyrazolo[1,5-a]pyridin-3-ylpyrimidin-4-yl]amino}piperidin-1-yl)-2-oxoethanol]
